Source: patent US6582719B2, “Combinations of antiseptic and antibiotic agents that inhibit the development of resistant microorganisms” (priority 2001, dated 2003)
Where two headings read alike, the source gives them in different places.

Columns and labels:
[1] = system: Pseudomonas aeruginosa; test: Zones of inhibition of treated catheter segments on seeded trypticase soy agar plates, 24 hours
[2] = system: S. epidermidis; test: Minimum inhibitory concentration in Trypticase Soy Broth, synergy (fractional inhibitory concentration); assay type: cell-based, Staphylococcus epidermidis
[3] = system: S. epidermidis; assay type: cell-based, Staphylococcus epidermidis
[4] = tetrahydrofuran/methanol solvent systems
[5] = catheter treated with 2% bismuth salt
[6] = catheter treated with 2% bismuth salt + 3% minocycline
[7] = 10-20 passages, inoculum 10^4 cfu/ml
[8] = 10 transfers, inoculum 10^6 cfu/ml

| Molecule | Zones of Inhibition Against Pseudomonas aeruginosa (mm) 2% Bismuth Salt [1] [mm] | Zones of Inhibition Against Pseudomonas aeruginosa (mm) 2% Bismuth Salt + 3% Minocycline [1] [mm] | INCREASE IN MIC (fold) [3, 7] | also measured |
| --- | --- | --- | --- | --- |
| O=[N+]([O-])[O-].O=[N+]([O-])[O-].O=[N+]([O-])[O-].[Bi+3] [Bismuth Nitrate, bismuth nitrate] |  |  |  | Zones of Inhibition Against Pseudomonas aeruginosa (mm) 2% Bismuth Salt [1, 5]: 0 mm; Zones of Inhibition Against Pseudomonas aeruginosa (mm) 2% Bismuth Salt + 3% Minocycline [1, 6]: 15 mm |
| CC(=O)[O-].CC(=O)[O-].CC(=O)[O-].[Bi+3] [Bismuth acetate, bismuth acetate] | 0 | 17 |  |  |
| O=C([O-])c1ccccc1.O=C([O-])c1ccccc1.O=C([O-])c1ccccc1.[Bi+3] [Bismuth benzoate, bismuth benzoate] | 0 | 18 |  |  |
| [Bi+3].[O-]B([O-])[O-] [Bismuth borate, bismuth borate] | 0 | 13 |  |  |
| O=C([O-])CC(O)(CC(=O)[O-])C(=O)[O-].[Bi+3] [Bismuth citrate, bismuth citrate] | 0 | 17 |  |  |
| CC(=O)O.CC(=O)O.NC(=N\CCCCCC/N=C(N)/N=C(\N)Nc1ccc(Cl)cc1)/N=C(\N)Nc1ccc(Cl)cc1 [Chlorhexidine (CHX), chlorhexidine diacetate] |  |  |  | MIC ([2]; inoculum of 10^4 cfu/ml): 0.5 µg/mL; INCREASE IN MIC (fold) [3]: 2 fold; MIC (μg/ml) AFTER PASSAGE [3]: 1.0 µg/mL; MIC (μg/ml) BEFORE PASSAGE [3]: 0.5 µg/mL |
| CN(C)c1ccc(O)c2c1C[C@H]1C[C@H]3[C@H](N(C)C)C(O)=C(C(N)=O)C(=O)[C@@]3(O)C(O)=C1C2=O [Minocycline (M), minocycline] |  |  | 2 fold | INCREASE IN MIC (fold) [3, 8]: 4 fold |
| CCn1cc(C(=O)O)c(=O)c2cc(F)c(N3CCNCC3)cc21 [Norfloxacin (Nf), norfloxacin] |  |  | 40 fold | upper limit incorporated (low solubility in tetrahydrofuran/methanol) [4]: about 0.5 percent (w/v) |
| CO[C@H]1/C=C/O[C@@]2(C)Oc3c(C)c(O)c4c(O)c(c(/C=N/N5CCN(C)CC5)c(O)c4c3C2=O)NC(=O)/C(C)=C\C=C\[C@H](C)[C@H](O)[C@@H](C)[C@@H](O)[C@@H](C)[C@H](OC(C)=O)[C@@H]1C [Rifampin (R), rifampin] |  |  | 25,000 fold |  |
| NC[C@H]1O[C@H](O[C@H]2[C@H](O)[C@@H](O[C@H]3O[C@H](CO)[C@@H](O)[C@H](N)[C@H]3O)[C@H](N)C[C@@H]2N)[C@H](N)C[C@@H]1O [Tobramycin (Tb), tobramycin] |  |  | 20 fold |  |
| Oc1cc(Cl)ccc1Oc1ccc(Cl)cc1Cl [Triclosan (T), triclosan] |  |  | 7 fold | MIC ([2]; Staphylococcus epidermidis, 24 h): 0.35 µg/mL; INCREASE IN MIC (fold) [3, 8]: 7 fold |
| bismuth mandelate | 0 | 18.5 |  |  |
| bismuth palmitate | 0 | 18.5 |  |  |
| bismuth salicylate | 0 | 17 |  |  |
| bismuth sulfadiazine |  |  |  | Zones of Inhibition Against Pseudomonas aeruginosa (mm) 2% Bismuth Salt [1, 5]: 6.5 mm; Zones of Inhibition Against Pseudomonas aeruginosa (mm) 2% Bismuth Salt + 3% Minocycline [1, 6]: 15.5 mm |
| polyhexamethylenebiguanide [PHMB] |  |  |  | INCREASE IN MIC (fold) [3]: 1.0 fold; MIC (μg/ml) AFTER PASSAGE [3]: 0.31 µg/mL; MIC (μg/ml) BEFORE PASSAGE [3]: 0.31 µg/mL |
